Test results published in US8222260B2, “Substituted 6-anilinopurine derivatives as inhibitors of cytokinin oxidase/dehydrogenase and preparations containing these derivatives” (Univerzita Palackego V Olomouci, priority 2007, dated 2012).

Key:
[1] = test system: Amaranthus caudatus cotyledon/hypocotyl explants; assay: Amaranthus bioassay (betacyanin content); type: cell-based, Amaranthus caudatus var. atropurpurea; conditions: at the concentration with highest activity, relative to 10^−5 M kinetin
Experimental: The standard Amaranthus bioassay was performed with the following modifications. The seeds of Amaranthus caudatus var. atropurpurea were surface-sterilised in 10% (w/v) N-chlorobenzenesulfonamide for 10 min and washed 5 times with deionized water. They were placed in 15 cm Petri dishes containing paper tissues saturated with deionized water. After 72 h of cultivation at 25° C. in darkness, the roots of the seedlings were cut off. The explants, consisting of two cotyledons and hypocotyls, were placed in 5 cm Petri dishes onto two layers of filtration paper soaked with 1 ml of the incubation medium containing 10 μmol of Na2HPO4—KH2PO4, pH 6.8, 5 μmol of tyrosine and the compound to be tested. There were 20 explants per dish. The procedure was carried out under green safe light in a darkroom. After 48 h of incubation at 25° C. in darkness, betacyanin was extracted by freezing the explants in 4 ml 3.33 μM acetic acid. The concentration of betacyanin was determined from the absorbances at 537 nm and 620 nm as follows: ΔA=A537nm−A620nm. The values ΔA were plotted against the concentration tested, are means of five replicates and the entire test was repeated at least twice. […] The compounds to be tested were dissolved in dimethylsulfoxide (DMSO) and the solution brought up to 10^−3M with distilled water.
From the obtained data, the concentration with the highest activity was selected for each compound tested. Relative activity of the compound at this concentration was calculated (Tab. 12). The activity obtained for 10^−5 M kinetin (K) was postulated as 100%.

[2] = test system: cytokinin-dependent tobacco callus Nicotiana tabacum L. cv. Wisconsin 38; assay: Tobacco callus biotest (plant cell division); type: cell-based; conditions: at the concentration with highest activity, relative to 10^−5 M kinetin
Experimental: The stimulatory effect of the newly prepared derivatives was tested in the calus biotest using cytokinin-dependent tobacco callus. Cytokinin-dependent tobacco callus Nicotiana tabacum L. cv. Wisconsin 38 was maintained at 25° C. in darkness on modified Murashige-Skoog medium, containing per 1 liter: 4 μmol of nicotinic acid, 2.4 μmol of pyridoxine hydrochloride, 1.2 μmol of thiamine, 26.6 μmol of glycine, 1.37 μmol of glutamine, 1.8 μmol of myo-inositol, 30 g of sucrose, 8 g of agar, 5.37 μmol of NAA and 0.5 μmol of 6-benzylaminopurine. Subcultivation was carried out every three weeks. Fourteen days before the bioassay, the callus tissue was transferred to the media without 6-benzylaminopurine. The biological activity was determined from the increase of the fresh callus weight after four weeks of cultivation. Five replicates were prepared for each concentration of the compound tested and the entire test was repeated twice. […] The compounds to be tested were dissolved in dimethylsulfoxide (DMSO) and the solution brought up to 10^−3 M with distilled water.
From the obtained data, the concentration with the highest activity was selected for each compound tested. Relative activity of the compound at this concentration was calculated (Table 11). The activity obtained for 10^−5 M of the control substance kinetin (K) was postulated as 100%.

CRE1/AHK4 = CRE1/AHK4 (Arabidopsis thaliana, UniProt Q9C5U0); assay: Activation of cytokinin receptors (E. coli KMI001 beta-galactosidase reporter); type: cell-based; conditions: 17 h incubation; n.a. means no activation
Experimental: (§1) Escherichia coli strains KMI001 harbouring the plasmid […]4 or […]3 were grown overnight at 25° C. in M9 media enriched with 0.1% casamino acids to OD600 1. The preculture was diluted 1:600 in 1 ml M9 medium containing 0.1% casamino acids and 1 μl stock solution of either the tested compound (10^-7 M-5×10^-5 M) or solvent control (DMSO, ethanol, methanol) were added. The cultures were further grown at 25° C. in microtiter plate, 200 μl per well. […] The cultures were centrifuged and 50 μl aliquots of the supernatant were transferred to microtiter plate containing 2 μl 150 mM 4-methyl umbelliferyl galactoside which was subsequently incubated for 1 h at 37° C. The reaction was stopped by adding 100 μl 0.2 M Na2CO3. […] The EC50 value, the compound concentration activating the receptor to 50%, was calculated from the obtained dose response curves. The values shown in Table 10 are means of three replicates and the entire test was repeated at least twice.

AHK3 = target: T1, AHK3 (Arabidopsis thaliana, UniProt Q9C5U1); assay: as above; type: cell-based; conditions: 28 h incubation; n.a. means no activation
T1 sequence (Q9C5U1 1-1036): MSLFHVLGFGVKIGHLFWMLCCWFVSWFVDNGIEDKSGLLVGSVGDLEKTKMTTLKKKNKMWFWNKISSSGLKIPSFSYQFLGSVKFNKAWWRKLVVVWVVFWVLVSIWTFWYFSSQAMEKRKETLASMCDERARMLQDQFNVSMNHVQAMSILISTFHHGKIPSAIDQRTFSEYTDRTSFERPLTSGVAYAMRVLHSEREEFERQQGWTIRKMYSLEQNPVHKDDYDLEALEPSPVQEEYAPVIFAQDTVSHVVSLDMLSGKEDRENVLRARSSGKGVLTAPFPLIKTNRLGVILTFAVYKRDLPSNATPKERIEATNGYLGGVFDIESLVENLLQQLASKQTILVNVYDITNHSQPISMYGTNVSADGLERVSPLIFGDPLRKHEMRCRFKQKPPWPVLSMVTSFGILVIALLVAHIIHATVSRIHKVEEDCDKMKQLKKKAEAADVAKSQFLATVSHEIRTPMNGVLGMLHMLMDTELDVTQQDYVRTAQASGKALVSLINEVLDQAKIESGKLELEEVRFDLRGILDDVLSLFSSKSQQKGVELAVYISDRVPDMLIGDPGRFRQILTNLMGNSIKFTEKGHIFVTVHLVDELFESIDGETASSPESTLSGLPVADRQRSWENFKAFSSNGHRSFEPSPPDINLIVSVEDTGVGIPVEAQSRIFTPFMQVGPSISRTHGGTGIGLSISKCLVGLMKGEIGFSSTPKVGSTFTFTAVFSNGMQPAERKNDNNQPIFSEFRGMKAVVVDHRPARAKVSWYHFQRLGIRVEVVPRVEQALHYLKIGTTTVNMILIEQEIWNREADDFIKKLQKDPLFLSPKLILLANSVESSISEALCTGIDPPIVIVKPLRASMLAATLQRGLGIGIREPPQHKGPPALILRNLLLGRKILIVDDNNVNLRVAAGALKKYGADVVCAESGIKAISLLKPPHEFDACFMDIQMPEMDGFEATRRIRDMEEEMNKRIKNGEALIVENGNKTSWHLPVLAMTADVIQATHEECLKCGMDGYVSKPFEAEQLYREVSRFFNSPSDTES
Experimental: as §1

recombinant AtCKX2 = target: T2, recombinant AtCKX2 (Arabidopsis thaliana, UniProt Q9FUJ3); assay: Inhibition of cytokinin oxidase/dehydrogenase activity (PMS/MTT microtitre plate assay); type: biochemical; conditions: 30 μM iP as substrate, pH 7.4, 37° C.; means of three replicates; read-out: IC50, inhibition of recombinant AtCKX2
T2 sequence (Q9FUJ3 23-501): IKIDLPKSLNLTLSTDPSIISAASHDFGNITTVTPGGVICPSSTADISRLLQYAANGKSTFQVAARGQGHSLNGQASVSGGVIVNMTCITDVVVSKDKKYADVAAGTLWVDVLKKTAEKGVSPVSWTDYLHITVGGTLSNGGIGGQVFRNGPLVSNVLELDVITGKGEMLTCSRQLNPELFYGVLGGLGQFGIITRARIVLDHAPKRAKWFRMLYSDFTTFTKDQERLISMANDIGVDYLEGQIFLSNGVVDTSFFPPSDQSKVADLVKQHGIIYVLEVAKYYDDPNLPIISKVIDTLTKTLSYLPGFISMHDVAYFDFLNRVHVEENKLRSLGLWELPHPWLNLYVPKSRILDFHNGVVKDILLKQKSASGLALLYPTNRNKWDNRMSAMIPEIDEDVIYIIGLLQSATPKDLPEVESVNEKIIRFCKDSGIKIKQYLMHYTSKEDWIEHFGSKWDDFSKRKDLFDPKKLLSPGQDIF
Experimental: IC50 determinations were done using the assay in microtitre plate. Each well contained 100 μL of PMS/MTT [phenazine methosulfate/3-(4,5-dimethylthiazol-2-yl)-2,5-diphenyltetrazolium bromide] reaction mixture (final concentrations: 0.1 M KH2PO4, pH 7.4, 1 mM MTT, 0.2 mM PMS) containing the tested compound (3×10^−7 M-3×10^−4 M) and 30 μM N^6-isopentenyladenine (iP) as a substrate. 100 μL of cell-free growth medium of S. cerevisiae strain 23344c ura^− harboring the plasmid pYES2-AtCKX2 was directly used as a source of AtCKX2. Plates were incubated in the dark for […] at 37° C. and the enzymatic reaction was stopped by 25 μL of 35% acetic acid. The absorbance at 578 nm was measured using spectrophotometer Tecan. Absorbance of the sample without iP was subtracted.
The IC50 value, the compound concentration that inhibits the enzyme activity to 50%, was calculated from the obtained dose response curves. The values shown in Table 9 are means of three replicates and the entire test was repeated at least twice.

CRE1/AHK4, sequence (Q9C5U0 whole entry): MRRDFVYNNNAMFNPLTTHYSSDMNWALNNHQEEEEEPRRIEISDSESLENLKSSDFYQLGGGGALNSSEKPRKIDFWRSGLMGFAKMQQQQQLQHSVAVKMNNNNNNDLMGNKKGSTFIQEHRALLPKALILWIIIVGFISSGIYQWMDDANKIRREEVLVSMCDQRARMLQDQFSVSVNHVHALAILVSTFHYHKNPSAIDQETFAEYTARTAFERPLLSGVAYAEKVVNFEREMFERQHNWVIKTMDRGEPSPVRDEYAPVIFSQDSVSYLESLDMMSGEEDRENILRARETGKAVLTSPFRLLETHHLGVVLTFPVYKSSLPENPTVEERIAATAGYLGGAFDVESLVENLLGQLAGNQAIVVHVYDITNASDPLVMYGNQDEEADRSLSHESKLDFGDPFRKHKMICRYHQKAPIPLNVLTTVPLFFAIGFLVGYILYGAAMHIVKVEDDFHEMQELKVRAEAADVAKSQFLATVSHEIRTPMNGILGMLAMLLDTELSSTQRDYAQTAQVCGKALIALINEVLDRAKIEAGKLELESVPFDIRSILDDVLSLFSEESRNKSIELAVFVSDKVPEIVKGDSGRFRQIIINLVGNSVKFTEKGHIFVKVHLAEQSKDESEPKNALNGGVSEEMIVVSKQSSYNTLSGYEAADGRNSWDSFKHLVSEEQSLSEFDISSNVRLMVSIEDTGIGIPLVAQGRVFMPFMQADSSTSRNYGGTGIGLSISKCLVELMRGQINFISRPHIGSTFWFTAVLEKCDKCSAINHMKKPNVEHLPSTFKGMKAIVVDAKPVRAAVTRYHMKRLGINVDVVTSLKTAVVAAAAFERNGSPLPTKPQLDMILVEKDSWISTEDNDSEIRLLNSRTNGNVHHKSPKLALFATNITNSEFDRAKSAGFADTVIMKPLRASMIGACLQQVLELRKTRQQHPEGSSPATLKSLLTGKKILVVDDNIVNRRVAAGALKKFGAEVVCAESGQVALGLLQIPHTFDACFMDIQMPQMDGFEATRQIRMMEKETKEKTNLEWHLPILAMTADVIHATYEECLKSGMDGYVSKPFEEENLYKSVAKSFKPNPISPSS

COc1ccccc1Nc1nc(F)nc2[nH]cnc12 [Compound 50]
Activity (%) [10^−5 mol · l^−1 K = 100%] [1]: 105.2%
Activity (%) [10^−5 mol · l^−1 K = 100%] [2]: 117.6%
EC50 (CRE1/AHK4): > 50 µM
EC50 (AHK3): 17.4 µM

Cc1nc(Nc2cccc(F)c2)c2nc[nH]c2n1 [Compound 113]
Activity (%) [10^−5 mol · l^−1 K = 100%] [1]: 120.2%
Activity (%) [10^−5 mol · l^−1 K = 100%] [2]: 125.3%
IC50 (recombinant AtCKX2): 21.8 µM

CSc1nc(Nc2cccc(F)c2)c2nc[nH]c2n1 [Compound 98]
Activity (%) [10^−5 mol · l^−1 K = 100%] [1]: 142.5%
Activity (%) [10^−5 mol · l^−1 K = 100%] [2]: 130.3%
EC50 (CRE1/AHK4): 49 µM
EC50 (AHK3): 32 µM

Sc1nc(Nc2cccc(Cl)c2)c2nc[nH]c2n1 [Compound 80]
Activity (%) [10^−5 mol · l^−1 K = 100%] [1]: 106%
Activity (%) [10^−5 mol · l^−1 K = 100%] [2]: 126%
EC50 (AHK3): 42 µM
IC50 (recombinant AtCKX2): 28.4 µM

COc1cccc(Nc2nc(C)nc3nc[nH]c23)c1 [Compound 118, 2-Methyl-6-(3-methoxyanilino)purine]
Activity (%) [10^−5 mol · l^−1 K = 100%] [1]: 144.2%
Activity (%) [10^−5 mol · l^−1 K = 100%] [2]: 105.7%
EC50 (AHK3): > 50 µM
IC50 (recombinant AtCKX2): 9.4 µM

Oc1ccc(Nc2nc(F)nc3[nH]cnc23)cc1 [Compound 49]
Activity (%) [10^−5 mol · l^−1 K = 100%] [2]: 106%
EC50 (CRE1/AHK4): 37.1 µM
EC50 (AHK3): > 50 µM

COc1cccc(Nc2nc(N)nc3nc[nH]c23)c1 [Compound 75, 2-Amino-6-(3-methoxyanilino)purine]
Activity (%) [10^−5 mol · l^−1 K = 100%] [1]: 123.6%
EC50 (AHK3): 20.4 µM
IC50 (recombinant AtCKX2): 24.7 µM

Cc1ccc(Nc2nc(Cl)nc3[nH]cnc23)cc1C [Compound 30]
EC50 (CRE1/AHK4): 33.3 µM
EC50 (AHK3): > 50 µM

Nc1nc(Nc2ccccc2O)c2[nH]cnc2n1 [Compound 71]
EC50 (CRE1/AHK4): > 50 µM
EC50 (AHK3): > 50 µM

CSc1nc(Nc2cccc(Cl)c2)c2nc[nH]c2n1 [Compound 96]
Activity (%) [10^−5 mol · l^−1 K = 100%] [1]: 145.8%
Activity (%) [10^−5 mol · l^−1 K = 100%] [2]: 121.2%
EC50 (CRE1/AHK4): 41 µM
EC50 (AHK3): 29 µM

Cc1nc(Nc2cccc(Cl)c2)c2nc[nH]c2n1 [Compound 111]
Activity (%) [10^−5 mol · l^−1 K = 100%] [2]: 128.3%
EC50 (AHK3): > 50 µM
IC50 (recombinant AtCKX2): 15.7 µM

Oc1ccccc1Nc1nc(F)nc2[nH]cnc12 [Compound 47]
EC50 (CRE1/AHK4): > 50 µM
EC50 (AHK3): 45.8 µM

COc1cccc(Nc2nc(S)nc3[nH]cnc23)c1 [Compound 88]
Activity (%) [10^−5 mol · l^−1 K = 100%] [1]: 113.4%
Activity (%) [10^−5 mol · l^−1 K = 100%] [2]: 103.4%
EC50 (AHK3): 31.7 µM
IC50 (recombinant AtCKX2): 28.3 µM
